According to patent US4057644A, “Active derivatives of methylamine in therapeutic compositions and methods of use” (priority 1976, dated 1977):

What was measured:
[1] = tested on: reserpine-induced catatonia; assay: Inhibition of reserpine-induced catatonia; format: in vivo, rat (male, OFA strain); settings: rat, oral
Experimental: Ater sufficient doses of reserpine have been administered to the rat, a series of symptoms occur, more particularly ptosis, catatonia and a drop in central temperature. These symptoms are caused by the depletion of the intrangranular reserve pool of biogenetic amines at the synaptic terminals.
An oral dose of the compound to be studied in aqueous solution was administered to batches of 10 male rats of the OFA strain weighing about 150 to 200 g. Thirty minutes later a dose of 5 mg/kg of reserpine was given by intraperitoneal route. Three hours after the injection of reserpine, the animals were suspended by the four paws to a horizontally stretched wire fixed at 15 cm from the ground. The catatonic animals were those which maintained the position so given for at least 30 seconds. […] The maximum score was therefore 10 per batch. An identical trial was undertaken with control animals which received reserpine but none of the compounds being studied.

mice = settings: for Index LD50/ED100: LD50 mice oral / dose giving 100% inhibition of catatonia; for Index LD50/ED20-30: LD50 mice oral / dose giving 20 to 30% inhibition of catatonia
in vivo = settings: mouse, po
[2] = tested on: neuroleptic-induced catatonia (prochlorperazine); assay: Inhibition of neuroleptic-induced catatonia; format: in vivo, rat (male, OFA strain); settings: rat, oral
Experimental: The blocking of dopaminergic receptors by neuroleptics in the extra-pyramidal system induces catatonia in the rat. Catatonia is differentiated from sedative properties by means of the test used hereabove for reserpine-induced catatonia. The same system of scoring was also employed in the present case.
An oral dose of the compound to be studied in aqueous solution was administered to batches of 10 male rats of the OFA strain weighing about 150 to 200 g.
Three hours after the injection of this latter compound, catatonia was measured. An identical trial was also carried out with control animals which received prochlorperazine but none of the compounds under study.
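For Index LD50/ED100 in this document: LD50 part of every column derived from compounds dosed in aqueous solution, deaths followed over a 10-day observation period after dosing.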
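For Index LD50/ED20-30 in this document: LD50 part of every column derived from compounds dosed in aqueous solution, deaths followed over a 10-day observation period after dosing.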
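For LD50 in this document: LD50 part of every column derived from compounds dosed in aqueous solution, deaths followed over a 10-day observation period after dosing.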

Row | SMILES | Index LD50/ED100 (mice) | LD50 at 240 h (in vivo) | Index LD50/ED20-30 (mice) | also measured
1 | CCCC(CCC)(CCC)NC(C)C [Compound 34, N-isopropyl-1,1-di-n-propyl-n-butylamine] | 21.6 |  |  | Inhibition of reserpine-induced catatonia ([1]; 6.5 mg/kg): 2 (represents 50% inhibition of catatonia in comparison with the controls (namely a score of 5 per studied batch))
2 | C=CCNC(CCC)(CCC)CCC [Compound 35, N-allyl-1,1-di-n-propyl-n-butylamine] | 21 | 130 mg/kg |  | Inhibition of reserpine-induced catatonia ([1]; 6 mg/kg): 2 (represents 50% inhibition of catatonia in comparison with the controls (namely a score of 5 per studied batch))
3 | C#CCNC(CCC)(CCC)CCC [Compound 36, N-propargyl-1,1-di-n-propyl-n-butylamine] |  | > 150 mg/kg | > 25 | 
4 | CCCC(CCC)(CC(C)C)N(C)C [Compound 37, N,n-dimethyl-1-n-propyl-1-isobutyl-n-butylamine] |  | 110 mg/kg |  | 
5 | CCCC(CCC)(CCC)N(C)CC [Compound 38, N-methyl-N-ethyl-1,1-di-n-propyl-n-butylamine] |  | > 120 mg/kg |  | Inhibition of reserpine-induced catatonia ([1]; 6.5 mg/kg): 2 (represents 50% inhibition of catatonia in comparison with the controls (namely a score of 5 per studied batch))
6 | C#CCN(CC#C)C(CCC)(CCC)CCC [Compound 39, N,n-dipropargyl-1,1-di-n-propyl-n-butylamine] |  | > 150 mg/kg |  | Inhibition of reserpine-induced catatonia ([1]; 15 mg/kg): 2 (represents 50% inhibition of catatonia in comparison with the controls (namely a score of 5 per studied batch))
7 | CCCC(CCC)(CCC)N1CC1 [Compound 40, N,n-ethylene-1,1-di-n-propyl-n-butylamine] |  | > 150 mg/kg | > 25 | Inhibition of reserpine-induced catatonia ([1]; 6 mg/kg): 2 (represents 50% inhibition of catatonia in comparison with the controls (namely a score of 5 per studied batch)); Inhibition of the neuroleptic-induced catatonia ([2]; 6 mg/kg): 1 (represents 20 to 30% inhibition of catatonia in comparison with the controls (namely a score of 7 to 8 per studied batch)); Inhibition of the neuroleptic-induced catatonia ([2]; 12 mg/kg): 3 (represents 70 to 80% inhibition of catatonia in comparison with the controls (namely a score of 2 or 3 per studied batch))
8 | C=NC(CCC)(CCC)CCC [Compound 41] | 27 | > 150 mg/kg |  | 
9 | CC=NC(CCC)(CCC)CCC [Compound 42, N-ethylidene-1,1-di-n-propyl-n-butylamine] | 20 | 120 mg/kg |  | 
10 | CCCC(CCC)(CCC)NCCO [Compound 43, N-(2-hydroxyethyl)-1,1-di-n-propyl-n-butylamine] |  | 150 mg/kg | 23 | Inhibition of the neuroleptic-induced catatonia ([2]; 6.5 mg/kg): 1 (represents 20 to 30% inhibition of catatonia in comparison with the controls (namely a score of 7 to 8 per studied batch))
11 | CCCC(CCC)(CCC)N(CCO)CCO [Compound 44, N,n-bis-(2-Hydroxyethyl)-1,1-di-n-propyl-n-butylamine] |  |  |  | Inhibition of the neuroleptic-induced catatonia ([2]; 15 mg/kg): 1 (represents 20 to 30% inhibition of catatonia in comparison with the controls (namely a score of 7 to 8 per studied batch))
12 | CCCC(CCC)(CCC)NCCCO [Compound 45, N-(3-hydroxy-n-propyl)-1,1-di-n-propyl-n-butylamine] |  | 140 mg/kg |  | Inhibition of reserpine-induced catatonia ([1]; 14 mg/kg): 2 (represents 50% inhibition of catatonia in comparison with the controls (namely a score of 5 per studied batch))
13 | CCCC(CCC)(CCC)N1CCOCC1 [Compound 46, N,n-(3-oxyapentamethylene)-1,1-di-n-propyl-n-butylamine] |  | 250 mg/kg | 31 | 
